The term IC50 denotes the midpoint of a concentration-inhibition curve. A higher IC50 goes with a need for much substance.

Where only a bound is given, the exact number is not on record here.

Assay [1] concerns TNF-α (NF-κB pathway, THP-1 cells). Nature of the assay: TNF-α Assay (IC50). The class given is cell-based, human. To be noted: 600 ng/mL LPS, 3 hours. On the procedure: TNF-α Assay (Reported as IC50)
Monocytic THP-1 cells (ATCC: TIB-202) were maintained in accordance with the provider's instructions in RPMI media (Life Technologies, Cat #A10491-01); RPMI was supplemented with 10% heat inactivated fetal bovine serum (Hyclone Cat #SH30396.03). The cells were differentiated into macrophages by the addition of 25 ng/mL IFN-7 for 24 hours at 37° C./5% CO2. Media was exchanged with fresh media with no FBS. The cells were plated at 40,000 cells per well in 384-well flat-bottom cell culture plates (Costar 3764) containing compounds (added in 1:1000) in a 1:3.16 serial dilution series in DMSO and were incubated for 30 minutes at 37° C./5% CO2. The NF-κB pathway was activated with the addition of 600 ng/mL LPS and the cells were incubated for 3 hours at 37° C./5% CO2. At the end of the incubation period, supernatant ([…]) was removed, and TNF-alpha were monitored using an ELISA (Human TNF-α ELISA, R&D systems, Cat #DY210) according to the manufacturer's instructions. 100% inhibition is determined with positive control, TPCA-1.
The IC50 values in the TNF-α assay were calculated from a plot of percentage of inhibition versus the inhibitor concentration by a logistics curve fit according to: Y=[Bottom+(Top−Bottom)]/(1+10^[(Log IC50−X)·Hill Slope], where Y was the […] at the inhibitor concentration, X, “Bottom” was the lowest inhibition value, i.e., 0%, “Top” was the maximum inhibition value, i.e., 100%, and the “Hill Slope” described the slope of the sigmoidal curve between the “Bottom” and “Top” values. The curve fitting was conducted with internally developed software.

The test system of assay [2] is NLRP3 inflammasome (IL-1β production in THP-1 cells). As to the kind of experiment: IL-1β TR-FRET Assay (percentage of inhibition at 300 nM, 6 μM or 10 μM). The class given is cell-based, human. To be noted: LPS priming, ATP activation; for inhibition at 0.3 µM: THP-1, 300 nM, read-out: IL-1β inhibitory rate at 300 nM (%); for inhibition at 6 µM: THP-1, 6 μM, read-out: IL-1β inhibitory rate at 6 μM (%). The gist of the method: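 THP-1 cells were differentiated with 25 ng/mL IFN-γ for 24 h, primed with 50 ng/mL LPS in serum-free medium for 24 h, then given compound for 30 min before 20 mM ATP for 2 h. Supernatant IL-1β was measured by HTRF after 16-24 h at room temperature. Inhibition was normalized between DMSO (high) and 3 μM MCC-950 (low).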
For orientation: Time-resolved FRET reads energy transfer from a long-lived donor to a nearby acceptor.

In the case of `Cc1cc(C)c(-n2cc3c(=O)[nH]c(OCC(F)(F)F)nc3n2)c(O)c1` [Example 55, 2-(2-hydroxy-4,6-dimethylphenyl)-6-(2,2,2-trifluoroethoxy)-2,5-dihydro-4H-pyrazolo[3,4-d]pyrimidin-4-one], in assay [1] (Homo sapiens), the concentration for half-maximal inhibition (IC50) is more than 30 µM. In addition, the inhibition at 0.3 µM in assay [2] (Homo sapiens) came out at 98%.
In turn, `Cc1cc(C2CC2)cc(C)c1-n1cc2c(=O)[nH]c([C@@]3(F)CCOC3)nc2n1` [Example 289, 2-(4-cyclopropyl-2,6-dimethylphenyl)-6-[(3R)-3-fluorooxolan-3-yl]-2,5-dihydro-4H-pyrazolo[3,4-d]pyrimidin-4-one or 2-(4-cyclopropyl-2,6-dimethylphenyl)-6-[(3S)-3-fluorooxolan-3-yl]-2,5-dihydro-4H-pyrazolo[3,4-d]pyrimidin-4-one] had a 50% inhibitory concentration (IC50) in assay [1] of more than 30 µM. For the same compound, the “IL-1β inhibitory rate at 6 μM (%)” value in assay [2] (6 μM) was found to be 101%.
In the case of `Cc1cc(C)c(-n2cc3c(=O)[nH]c(-c4cc(C)ncn4)nc3n2)c(O)c1` [Example 58, 2-(2-hydroxy-4,6-dimethylphenyl)-6-(6-methylpyrimidin-4-yl)-2,5-dihydro-4H-pyrazolo[3,4-d]pyrimidin-4-one], the half-maximal inhibitory concentration (IC50) in assay [1] (Homo sapiens) was more than 30 µM. Besides, the inhibition at 0.3 µM in assay [2] (Homo sapiens) is 100%.
`COc1nc2nn(-c3c(C)cc(C)cc3O)cc2c(=O)[nH]1` [Example 3, 2-(2-hydroxy-4,6-dimethylphenyl)-6-methoxy-2,5-dihydro-4H-pyrazolo[3,4-d]pyrimidin-4-one] displayed a half-inhibitory concentration (IC50) in assay [1] (Homo sapiens) of more than 30 µM. Further, in assay [2] (Homo sapiens), the inhibition at 0.3 µM is 94%.
Take `COCCn1ccc(-c2nc3nn(-c4c(C)cc(C5CC5)cc4C)cc3c(=O)[nH]2)n1` [Example 278, 2-(4-cyclopropyl-2,6-dimethylphenyl)-6-[1-(2-methoxyethyl)-1H-pyrazol-3-yl]-2,5-dihydro-4H-pyrazolo[3,4-d]pyrimidin-4-one]: the 50% inhibitory concentration (IC50) in assay [1] (Homo sapiens) was more than 30 µM. For the same compound, the inhibition at 6 µM in assay [2] (Homo sapiens) is 95%.
Take `CCOc1nc2nn(-c3c(C)cc(CC(F)(F)F)cc3F)cc2c(=O)[nH]1` [Example 156, 6-ethoxy-2-[2-fluoro-6-methyl-4-(2,2,2-trifluoroethyl)phenyl]-2,5-dihydro-4H-pyrazolo[3,4-d]pyrimidin-4-one]: in assay [1] (Homo sapiens), the 50% inhibitory concentration (IC50) is more than 30 µM. Moreover, the inhibition at 10 µM in assay [2] (Homo sapiens, THP-1, 10 μM, read-out: IL-1β inhibitory rate at 10 μM (%)) came out at 97%.
Take `Cc1cc(C2(F)CC2)cc(C)c1-n1cc2c(=O)[nH]c(COC(F)F)nc2n1` [Example 263, 6-[(difluoromethoxy)methyl]-2-[4-(1-fluorocyclopropyl)-2,6-dimethylphenyl]-2,5-dihydro-4H-pyrazolo[3,4-d]pyrimidin-4-one]: the IC50 in assay [1] (Homo sapiens) was more than 30 µM. In addition, the inhibition at 6 µM in assay [2] (Homo sapiens) came to 104%.
For `COc1nc2nn(-c3c(C)cc(OC(F)F)cc3C(F)F)cc2c(=O)[nH]1` [Example 284, 2-[4-(difluoromethoxy)-2-(difluoromethyl)-6-methylphenyl]-6-methoxy-2,5-dihydro-4H-pyrazolo[3,4-d]pyrimidin-4-one], in that order: more than 30 µM and 103%.
`CCOc1nc2nn(-c3ccc(C(C)C)cc3O)c(C)c2c(=O)[nH]1` [Example 44, 6-ethoxy-2-[2-hydroxy-4-(propan-2-yl)phenyl]-3-methyl-2,5-dihydro-4H-pyrazolo[3,4-d]pyrimidin-4-one] returned an IC50 in assay [1] (Homo sapiens) of more than 30 µM. The inhibition at 0.3 µM in assay [2] (Homo sapiens) was determined as 101%.
For `CCOc1nc2nn(-c3c(F)cc(C)cc3CC)cc2c(=O)[nH]1` [Example 76, 6-ethoxy-2-(2-ethyl-6-fluoro-4-methylphenyl)-2,5-dihydro-4H-pyrazolo[3,4-d]pyrimidin-4-one], in that order: more than 30 µM and 94%.
Consider `CCOc1nc2nn(-c3c(C)cc(Cl)cc3F)cc2c(=O)[nH]1` [Example 65, 2-(4-chloro-2-fluoro-6-methylphenyl)-6-ethoxy-2,5-dihydro-4H-pyrazolo[3,4-d]pyrimidin-4-one], for which the IC50 in assay [1] (Homo sapiens) is more than 30 µM. The inhibition at 0.3 µM in assay [2] (Homo sapiens) is 96%.
With `Cc1cc(C2CC2)cc(C)c1-n1cc2c(=O)[nH]c(C3CCOCC3)nc2n1` [Example 198, 2-(4-cyclopropyl-2,6-dimethylphenyl)-6-(oxan-4-yl)-2,5-dihydro-4H-pyrazolo[3,4-d]pyrimidin-4-one], the IC50 in assay [1] (Homo sapiens) was more than 30 µM. Further, the inhibition at 0.3 µM in assay [2] (Homo sapiens) was determined as 95%.
Compound `Cc1cc(C)c(-n2cc3c(=O)[nH]c(-c4cccnn4)nc3n2)c(O)c1` [Example 30, 2-(2-hydroxy-4,6-dimethylphenyl)-6-(pyridazin-3-yl)-2,5-dihydro-4H-pyrazolo[3,4-d]pyrimidin-4-one] showed a half-inhibitory concentration (IC50) in assay [1] (Homo sapiens) of more than 30 µM. In assay [2] (Homo sapiens), the inhibition at 0.3 µM was found to be 100%.
In assay [1] (Homo sapiens), `CCOc1nc2nn(-c3ccc(C(F)(F)F)cc3C)cc2c(=O)[nH]1` [Example 69, 6-ethoxy-2-[2-methyl-4-(trifluoromethyl)phenyl]-2,5-dihydro-4H-pyrazolo[3,4-d]pyrimidin-4-one] returned an IC50 of more than 30 µM. Further, in assay [2] (Homo sapiens), the inhibition at 0.3 µM was 100%.
In assay [1] (Homo sapiens), `Cc1ccc(-n2cc3c(=O)[nH]c(OC4CCC4)nc3n2)c(C)c1` [Example 87, 6-(cyclobutyloxy)-2-(2,4-dimethylphenyl)-2,5-dihydro-4H-pyrazolo[3,4-d]pyrimidin-4-one] showed an IC50 of more than 30 µM. In assay [2] (Homo sapiens), the inhibition at 0.3 µM came out at 97%.
As for `CCOc1nc2nn(-c3c(C)cc(C(F)F)cc3F)cc2c(=O)[nH]1` [Example 136, 2-[4-(difluoromethyl)-2-fluoro-6-methylphenyl]-6-ethoxy-2,5-dihydro-4H-pyrazolo[3,4-d]pyrimidin-4-one], the IC50 in assay [1] (Homo sapiens) is more than 30 µM. Besides, in assay [2] (Homo sapiens), the inhibition at 0.3 µM is 92%.
In turn, `Cc1ccc(-n2cc3c(=O)[nH]c(OCC(C)(F)F)nc3n2)c(O)c1` [Example 86, 6-(2,2-difluoropropoxy)-2-(2-hydroxy-4-methylphenyl)-2,5-dihydro-4H-pyrazolo[3,4-d]pyrimidin-4-one] came in with a 50% inhibitory concentration (IC50) in assay [1] (Homo sapiens) of more than 30 µM. The inhibition at 0.3 µM in assay [2] (Homo sapiens) turned out to be 85%.
On to `Cc1cc(C2CC2)cc(C)c1-n1cc2c(=O)[nH]c(C3CC3)nc2n1` [Example 167, 6-cyclopropyl-2-(4-cyclopropyl-2,6-dimethylphenyl)-2,5-dihydro-4H-pyrazolo[3,4-d]pyrimidin-4-one], for which, in assay [1] (Homo sapiens), the half-maximal inhibitory concentration (IC50) is more than 30 µM. Besides, the inhibition at 0.3 µM in assay [2] (Homo sapiens) worked out at 98%.
In assay [1] (Homo sapiens), `COCc1nc2nn(-c3c(C)cc(C4CC4)cc3C)cc2c(=O)[nH]1` [Example 166, 2-(4-cyclopropyl-2,6-dimethylphenyl)-6-(methoxymethyl)-2,5-dihydro-4H-pyrazolo[3,4-d]pyrimidin-4-one] came in with an IC50 of more than 30 µM. The inhibition at 0.3 µM in assay [2] (Homo sapiens) stood at 103%.
`CCOc1nc2nn(-c3c(C)cc(C4(F)CC4)cc3C)cc2c(=O)[nH]1` [Example 245, 6-ethoxy-2-[4-(1-fluorocyclopropyl)-2,6-dimethylphenyl]-2,5-dihydro-4H-pyrazolo[3,4-d]pyrimidin-4-one] returned an IC50 in assay [1] (Homo sapiens) of more than 30 µM. The inhibition at 6 µM in assay [2] (Homo sapiens) amounted to 101%.
`CCOc1nc2nn(-c3ccc(C)cc3C)cc2c(=O)[nH]1` [Example 82, 2-(2,4-dimethylphenyl)-6-ethoxy-2,5-dihydro-4H-pyrazolo[3,4-d]pyrimidin-4-one]: the IC50 in assay [1] (Homo sapiens) was more than 30 µM. The inhibition at 0.3 µM in assay [2] (Homo sapiens) is 98%.
On to `Cc1cc(-c2nc3nn(-c4c(C)cc(C5CC5)cc4C)cc3c(=O)[nH]2)on1` [Example 275, 2-(4-cyclopropyl-2,6-dimethylphenyl)-6-(3-methyl-1,2-oxazol-5-yl)-2,5-dihydro-4H-pyrazolo[3,4-d]pyrimidin-4-one], for which, in assay [1] (Homo sapiens), the half-maximal inhibitory concentration (IC50) was determined as 2.26 µM. In assay [2] (Homo sapiens), the inhibition at 6 µM is 101%.

The record behind these values is patent US20260297092A1, “PYRAZOLOPYRIMIDINE DERIVATIVES AS INHIBITORS OF NLRP3” (Takeda Pharmaceutical Company Limited, priority 2023, published 2026).
